According to patent US9221836B2, “Heterocyclic compound and use thereof” (TAKEDA PHARMACEUTICAL COMPANY LIMITED, priority 2008, dated 2015):
Changes are numbered by the printed parent chain. Counter-ions that a name gives are not always drawn.

Target: T1, Human renin (Homo sapiens, UniProt P00797)
T1 sequence (P00797 67-406): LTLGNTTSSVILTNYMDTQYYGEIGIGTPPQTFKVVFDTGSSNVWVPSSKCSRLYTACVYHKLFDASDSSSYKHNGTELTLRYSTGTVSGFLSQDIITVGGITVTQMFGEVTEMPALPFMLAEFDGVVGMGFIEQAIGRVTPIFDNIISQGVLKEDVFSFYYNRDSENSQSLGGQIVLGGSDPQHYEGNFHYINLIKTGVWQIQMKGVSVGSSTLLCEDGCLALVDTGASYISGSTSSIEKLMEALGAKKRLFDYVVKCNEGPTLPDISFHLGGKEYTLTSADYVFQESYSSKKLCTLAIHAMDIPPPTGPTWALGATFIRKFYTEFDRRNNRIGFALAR
Experiment: Human renin inhibition, angiotensin I quantified by EIA
Details: read-out: Human renin inhibitory activity: inhibitory activity (%) at 0.1 μM
Method: (6) Measurement of Renin Inhibition Value
As a substrate for renin activity measurement, the angiotensinogen mentioned in (5) above was used. 1 μl each of the test compound (containing 100% DMSO) was added to each well of a 384-well plate (ABgene). Renin was diluted with a buffer solution for reaction (20 mM sodium phosphate (pH 7.4)) to a concentration of 57 pM, and 14 μl each of the dilution was added to each well. The dilution was left to stand at 37° C. for 10 min, and then 5 μl of each of a 6 μM solution of substrate angiotensinogen was added to each well to initiate the reaction. […] The amount of angiotensin I produced by an enzyme reaction was quantified by Enzyme Immuno Assay (EIA) described below.
Anti-angiotensin I antibody (Peninsula Laboratories Inc.) diluted 5,000-fold with PBS was added to each well of a 384 well black plate (Nalge Nunc International Co., Ltd.) by 25 μl, and left standing overnight at 4° C. to immobilize the antibody in the plate. The antibody solution was removed, PBS solution (100 μl) containing 1% BSA was added to each well, and the mixture was left standing at room temperature for 2 hr for blocking. The blocking solution was removed, and each well was washed 5 times with 100 μl of 0.05% Tween20-PBS. […] Then, a biotinated angiotensin I solution (AnaSpec, 15 μl) prepared to 1.6 nM with a buffer [20 mM tris-hydrochloric acid (pH 7.4), 150 mM sodium chloride, 0.01% BSA, 0.05% Tween20] was added to each well, mixed with a plate mixer and left standing at room temperature for 1 hr. The solutions were removed from each well, and each well was washed 5 times with 100 μl of 0.05% Tween20-PBS. Horseradish peroxydase Streptavidin (PIERCE Biotecnology inc., 25 μl) diluted to 100 ng/ml with a buffer [20 mM tris-hydrochloric acid (pH 7.4), 150 mM sodium chloride, 0.1% BSA, 0.05% Tween 20] was added to each well and the mixture was left standing at room temperature for 30 min. The solutions were removed from each well, and each well was washed 5 times with 100 μl of 0.05% Tween20-PBS. SuperSignal ELISA femto Maximum Sensitivity Substrate (PIERCE Biotecnology Inc.) was added by 25 μl and luminescence intensity was measured by EnVision (Perkin Elmer Inc.). An analytical curve was drawn from the luminescence intensity of wells containing an angiotensin I standard solution, and the amount of angiotensin I produced by an enzyme reaction was calculated and used as an index of renin activity.

First: COCCCCn1c(C(=O)N(CC(C)C)[C@@H]2CNC[C@H]([C@H](C)O)C2)nc2ccccc21.Cl.Cl [Example 74-1, N-{(3S,5R)-5-[(1S)-1-hydroxyethyl]piperidin-3-yl}-1-(4-methoxybutyl)-N-(2-methylpropyl)-1H-benzimidazole-2-carboxamide dihydrochloride]
Second: COCCCCn1c(C(=O)N(CC(C)C)[C@@H]2CNC[C@H]([C@@H](C)O)C2)nc2ccccc21.Cl.Cl [Example 74-2, N-{(3S,5R)-5-[(1R)-1-hydroxyethyl]piperidin-3-yl}-1-(4-methoxybutyl)-N-(2-methylpropyl)-1H-benzimidazole-2-carboxamide dihydrochloride]
The inhibition at 0.1 µM of the first is lower: 94% for the first, 96% for the second.

First: CC[C@@H](O)[C@H]1CNC[C@@H](N(CC(C)C)C(=O)c2nc3ccccc3n2CCCCOC)C1.Cl.Cl [Example 75-2, N-{(3S,5R)-5-[(1R)-1-hydroxypropyl]piperidin-3-yl}-1-(4-methoxybutyl)-N-(2-methylpropyl)-1H-benzimidazole-2-carboxamide dihydrochloride]
Second: CC[C@H](O)[C@H]1CNC[C@@H](N(CC(C)C)C(=O)c2nc3ccccc3n2CCCCOC)C1.Cl.Cl [Example 75-1, N-{(3S,5R)-5-[(1S)-1-hydroxypropyl]piperidin-3-yl}-1-(4-methoxybutyl)-N-(2-methylpropyl)-1H-benzimidazole-2-carboxamide dihydrochloride]
The inhibition at 0.1 µM of the first is lower: 90% for the first, 95% for the second.

Target: T2, plasma renin activity (PRA) (Macaca fascicularis, UniProt Q6DLS0)
T2 sequence (Q6DLS0 67-406): T1 sequence (P00797 67-406) with T2A, I148L, S169A
Experiment: not given
Details: male Macaca fascicularis; 1 mg/kg orally in 0.5% methylcellulose; plasma 4 hr after administration; amended with vehicle group

First: COCCCCn1c(C(=O)N(CC(C)C)[C@@H]2CNC[C@H](C(C)O)C2)nc2ccccc21 (stereo partly drawn) [Example 42, N-[(3S,5R)-5-(1-hydroxyethyl)piperidin-3-yl]-1-(4-methoxybutyl)-N-(2-methylpropyl)-1H-benzimidazole-2-carboxamide dihydrochloride]
Second: COCCCCn1c(C(=O)N(CC(C)C)[C@@H]2CNC[C@H]([C@H](C)O)C2)nc2ccccc21.Cl.Cl [Example 74-1, N-{(3S,5R)-5-[(1S)-1-hydroxyethyl]piperidin-3-yl}-1-(4-methoxybutyl)-N-(2-methylpropyl)-1H-benzimidazole-2-carboxamide dihydrochloride]
The “Macaca fascicularis plasma renin activity: PPA inhibitory activity (%, n = 3-7)” value of the first is lower: 70% for the first, 90% for the second.

Going from `CCC(O)[C@H]1CNC[C@@H](N(CC(C)C)C(=O)c2nc3ccccc3n2CCCCOC)C1` (stereo partly drawn) [Example 76, N-[(3S,5R)-5-(1-hydroxypropyl)piperidin-3-yl]-1-(4-methoxybutyl)-N-(2-methylpropyl)-1H-benzimidazole-2-carboxamide dihydrochloride] to `CC[C@@H](O)[C@H]1CNC[C@@H](N(CC(C)C)C(=O)c2nc3ccccc3n2CCCCOC)C1.Cl.Cl` [Example 75-2, N-{(3S,5R)-5-[(1R)-1-hydroxypropyl]piperidin-3-yl}-1-(4-methoxybutyl)-N-(2-methylpropyl)-1H-benzimidazole-2-carboxamide dihydrochloride], the “Macaca fascicularis plasma renin activity: PPA inhibitory activity (%, n = 3-7)” value falls from 79% to 71%.

Going from `COCCCCn1c(C(=O)N(CC(C)C)[C@@H]2CNC[C@H]([C@H](O)COC)C2)nc2ccccc21.Cl.Cl` [Example 73-2, N-{(3S,5R)-5-[(1S)-1-hydroxy-2-methoxyethyl]piperidin-3-yl}-1-(4-methoxybutyl)-N-(2-methylpropyl)-1H-benzimidazole-2-carboxamide dihydrochloride] to `COCCCCn1c(C(=O)N(CC(C)C)[C@@H]2CNC[C@H]([C@@H](O)COC)C2)nc2ccccc21.Cl.Cl` [Example 73-1, N-{(3S,5R)-5-[(1R)-1-hydroxy-2-methoxyethyl]piperidin-3-yl}-1-(4-methoxybutyl)-N-(2-methylpropyl)-1H-benzimidazole-2-carboxamide dihydrochloride], the “Macaca fascicularis plasma renin activity: PPA inhibitory activity (%, n = 3-7)” value falls from 90% to 77%.

Going from `COCCCCn1c(C(=O)N(CC(C)C)[C@@H]2CNC[C@H](C(=O)N3CCOCC3)C2)nc2ccc(F)cc21` [Example 11, 6-fluoro-1-(4-methoxybutyl)-N-(2-methylpropyl)-N-[(3S,5R)-5-(morpholin-4-ylcarbonyl)piperidin-3-yl]-1H-benzimidazole-2-carboxamide dihydrochloride] to `COCCCCn1c(C(=O)N(CC(C)C)[C@@H]2CNC[C@H](C(=O)N3CCOCC3)C2)nc2ccc(OC)cc21` [Example 60, 6-methoxy-1-(4-methoxybutyl)-N-(2-methylpropyl)-N-{(3S,5R)-5-(morpholin-4-ylcarbonyl)piperidin-3-yl}-1H-benzimidazole-2-carboxamide dihydrochloride], the “Macaca fascicularis plasma renin activity: PPA inhibitory activity (%, n = 3-7)” value falls from 89% to 85%.

Going from `COCCCCc1c(C(=O)N(CC(C)C)[C@@H]2CNC[C@H](C(=O)N3CCOCC3)C2)nnn1-c1ccccc1Cl.Cl` [Example 235, 1-(2-chlorophenyl)-5-(4-methoxybutyl)-N-(2-methylpropyl)-N-[(3S,5R)-5-(morpholin-4-ylcarbonyl)piperidin-3-yl]-1H-1,2,3-triazole-4-carboxamide hydrochloride] to `COCCCCc1c(C(=O)N(CC(C)C)[C@@H]2CNC[C@H](C(=O)N3CCOCC3)C2)nnn1-c1ccccc1F.Cl` [Example 233, 1-(2-fluorophenyl)-5-(4-methoxybutyl)-N-(2-methylpropyl)-N-[(3S,5R)-5-(morpholin-4-ylcarbonyl)piperidin-3-yl]-1H-1,2,3-triazole-4-carboxamide hydrochloride], the “Macaca fascicularis plasma renin activity: PPA inhibitory activity (%, n = 3-7)” value rises from 62% to 67%.

Compared with `COCCCCn1c(C(=O)N(CC(C)C)[C@@H]2CNC[C@H](C(N)=O)C2)nc2ccccc21` [Example 25, N-[(3S,5R)-5-carbamoylpiperidin-3-yl]-1-(4-methoxybutyl)-N-(2-methylpropyl)-1H-benzimidazole-2-carboxamide dihydrochloride], `COCCCCn1c(C(=O)N(CC(C)C)[C@@H]2CNC[C@H](C(=O)O)C2)nc2ccccc21` [Example 33, (3R,5S)-5-[{[1-(4-methoxybutyl)-1H-benzimidazol-2-yl]carbonyl}(2-methylpropyl)amino]piperidine-3-carboxylic acid dihydrochloride] is lower in “Macaca fascicularis plasma renin activity: PPA inhibitory activity (%, n = 3-7)” value: 79% for the first, 77% for the second.

First: COCCCCn1c(C(=O)N(CC(C)C)[C@@H]2CNC[C@H](C(=O)N3CCCC3)C2)nc2cc(F)ccc21 [Example 18, 5-fluoro-1-(4-methoxybutyl)-N-(2-methylpropyl)-N-[(3S,5R)-5-(pyrrolidin-1-ylcarbonyl)piperidin-3-yl]-1H-benzimidazole-2-carboxamide dihydrochloride]
Second: COCCCCn1c(C(=O)N(CC(C)C)[C@@H]2CNC[C@H](C(=O)N3CCCC3)C2)nc2ccc(OC)cc21 [Example 62, 6-methoxy-1-(4-methoxybutyl)-N-(2-methylpropyl)-N-{(3S,5R)-5-(pyrrolidin-1-ylcarbonyl)piperidin-3-yl}-1H-benzimidazole-2-carboxamide dihydrochloride]
The “Macaca fascicularis plasma renin activity: PPA inhibitory activity (%, n = 3-7)” value of the first is higher: 89% for the first, 75% for the second.

First: CC[C@H](O)[C@H]1CNC[C@@H](N(CC(C)C)C(=O)c2nc3ccccc3n2CCCCOC)C1.Cl.Cl [Example 75-1, N-{(3S,5R)-5-[(1S)-1-hydroxypropyl]piperidin-3-yl}-1-(4-methoxybutyl)-N-(2-methylpropyl)-1H-benzimidazole-2-carboxamide dihydrochloride]
Second: COCCCCn1c(C(=O)N(CC(C)C)[C@@H]2CNC[C@H]([C@@H](C)O)C2)nc2ccccc21.Cl.Cl [Example 74-2, N-{(3S,5R)-5-[(1R)-1-hydroxyethyl]piperidin-3-yl}-1-(4-methoxybutyl)-N-(2-methylpropyl)-1H-benzimidazole-2-carboxamide dihydrochloride]
The “Macaca fascicularis plasma renin activity: PPA inhibitory activity (%, n = 3-7)” value of the first is higher: 86% for the first, 54% for the second.

First: COCCCCn1c(C(=O)N(CC(C)C)[C@@H]2CNC[C@H](C(=O)N3CCCCC3)C2)nc2ccccc21 [Example 21, 1-(4-methoxybutyl)-N-(2-methylpropyl)-N-[(3S,5R)-5-(piperidin-1-ylcarbonyl)piperidin-3-yl]-1H-benzimidazole-2-carboxamide dihydrochloride]
Second: COCCCCn1c(C(=O)N(CC(C)C)[C@@H]2CNC[C@H](C(=O)N3CCOCC3)C2)nc2ccccc21 [Example 10, 1-(4-methoxybutyl)-N-(2-methylpropyl)-N-[(3S,5R)-5-(morpholin-4-ylcarbonyl)piperidin-3-yl]-1H-benzimidazole-2-carboxamide dihydrochloride]
The “Macaca fascicularis plasma renin activity: PPA inhibitory activity (%, n = 3-7)” value of the first is higher: 85% for the first, 72% for the second.

Going from `COCCCCn1c(C(=O)N(CC(C)C)[C@@H]2CNC[C@H](C(O)COC)C2)nc2ccccc21` (stereo partly drawn) [Example 48, N-[(3S,5R)-5-(1-hydroxy-2-methoxyethyl)piperidin-3-yl]-1-(4-methoxybutyl)-N-(2-methylpropyl)-1H-benzimidazole-2-carboxamide dihydrochloride] to `COCCCCn1c(C(=O)N(CC(C)C)[C@@H]2CNC[C@H](CO)C2)nc2ccccc21` [Example 40, N-[(3S,5R)-5-(hydroxymethyl)piperidin-3-yl]-1-(4-methoxybutyl)-N-(2-methylpropyl)-1H-benzimidazole-2-carboxamide dihydrochloride], the “Macaca fascicularis plasma renin activity: PPA inhibitory activity (%, n = 3-7)” value falls from 78% to 75%.

Compared with `COCCCCn1c(C(=O)N(CC(C)C)[C@@H]2CNC[C@H](C(=O)OCc3oc(=O)oc3C)C2)nc2ccccc21` [Example 7, (5-methyl-2-oxo-1,3-dioxol-4-yl)methyl (3R,5S)-5-[{[1-(4-methoxybutyl)-1H-benzimidazol-2-yl]carbonyl}(2-methylpropyl)amino]piperidine-3-carboxylate dihydrochloride], `COCCCCn1c(C(=O)N(CC2CC2)[C@@H]2CNC[C@H](C(=O)N3CCOCC3)C2)nc2ccccc21` [Example 253, N-(cyclopropylmethyl)-1-(4-methoxybutyl)-N-[(3S,5R)-5-(morpholin-4-ylcarbonyl)piperidin-3-yl]-1H-benzimidazole-2-carboxamide dihydrochloride] is lower in “Macaca fascicularis plasma renin activity: PPA inhibitory activity (%, n = 3-7)” value: 93% for the first, 77% for the second.
